Results: patent US8940798B2, “Compounds useful for treating and/or preventing disease-associated bone loss” (Centre National de al Recherche Scientifique (CNRS), priority 2011, dated 2015)

Tested on: DBA1 mice
Test: Arthritis model induced by injecting bovine collagen into DBA1 mice
Assay type: in vivo, mouse
Procedure: In inflammatory arthritis pathologies such as rheumatoid polyarthritis, the inflammatory reaction in the synovial tissue causes differentiation of osteoclasts that destroy the bone in the area of the joints (see FIG. 8). The arthritis model induced by injecting bovine collagen into DBA1 mice is classically used as a model for this pathology.
Protocol experiment 1: 2 naive DBA1 mice, 6 control mice injected with PBS and 8 test mice receiving the compound C21, 5 mg/d/kg, 5 days per week, as a retro-orbital sinus injection. The mice are distributed in 2 cages, with 1 naive mouse, 3 control mice and 4 test mice per cage. The animals, with the exception of the naive mice, receive an injection of […] of bovine collagen at day 0 and at day 20.
Protocol experiment 2: 4 naive DBA1 mice, 12 control mice injected with PBS and 12 test mice receiving the compound C21, 15 mg/d/kg, 5 days per week, as an intraperitoneal injection. The mice are distributed in 2 cages, with 2 naive mice, 6 control mice and 6 test mice per cage. The animals, with the exception of the naive mice, receive an injection of 100 μg of bovine collagen at day 0 and at day 20.
The arthritic score of each mouse is established twice per week between days 20 and D52, in order to measure swelling and deformation of the joints of the four limbs, an indication of the inflammatory response. The mice are sacrificed at D53, the legs are dissected and the structure of the bone surface of the metatarsi is imaged by micro-tomography in order to show the bone degradation at the area of the joints. The bone volume with respect to the total volume of the joint (BV/TV) decreases with the formation of resorption cavities. The measurements were performed on the joint of the central finger of the right metatarsus in experiment 1 and from the left and the right metatarsus in experiment 2. Anti-collagen IgG levels were measured in the serum of the mice in experiment 2 at day 52.

SMILES: O=S(=O)(Nc1cc(Cl)cc(Cl)c1)c1ccccc1 [C21, N-(3,5-dichlorophenyl)benzenesulfonamide]
- Correlation between the arthritic score and BV/TV (experiment 1, 5 mg/d/kg): no correlation
- Mean arthritic score on D52 (experiment 1, 5 mg/d/kg, 5 days per week, retro-orbital sinus injection): 3.78±1.23
- Bone mass regardless of arthritic score (experiment 1, 5 mg/d/kg, BV/TV relative to arthritic score): maintenance of their bone mass
- Bone mass (BV/TV) by micro-tomography by comparison with the naive mice (experiment 1, 5 mg/d/kg, metatarsus joint, D53): did not have any BV/TV modification
- Number of mice of the 8 showing moderate bone degradation (experiment 1, 5 mg/d/kg, three-dimensional reconstruction of first joint of metatarsus): 1
- Correlation between the BV/TV and the arthritic score (experiment 2, 15 mg/d/kg intraperitoneal): no correlation
- Levels of anti-collagen IgGs compared with PBS mice (experiment 2, 15 mg/d/kg intraperitoneal, serum at day 52): non-significantly different
